Experimental data taken from US20200261434A1, “IDH1 INHIBITORS FOR THE TREATMENT OF HAEMATOLOGICAL MALIGNANCIES AND SOLID TUMORS” (Agios Pharmaceuticals, Inc., priority 2016, published 2020).
Positions count from the first letter of the chain named. Converted amounts (≈) assume the structure as drawn.

Key:
[1] = system: advanced hematologic malignancies with an IDH2 mutation; test: Phase 1/2 clinical study AG221-C-001, clinical activity (overall response rate); format: in vivo, human; conditions: 44 subjects treated at 100 mg QD, preliminary efficacy data
From the text: Response to treatment and treatment decisions in all subjects will be determined by the Investigators based on modified International Working Group (IWG) response criteriaor other appropriate response criteria for the malignancy under study.
Overall response rate (ORR), the primary efficacy endpoint, is defined as the rate of responders including complete remission (CR), CR with incomplete platelet recovery (CRp), marrow CR (mCR) (morphologic leukemia-free state [MLFS] for subjects with AML), CR with incomplete hematologic recovery (CRi), and partial remission (PR). Other measures of clinical activity including complete remission rate (CRR), duration of remission/response, event-free survival, overall survival, and time to remission/response will be summarized.
For Phase 1 Dose Escalation/Part 1 Expansion, the efficacy analysis of response rates as assessed by the site Investigators using modified International Working Group (IWG) response criteria will be conducted in Full Analysis Set for each dose level, expansion arm, and overall if appropriate.

IDH2 R140Q = molecular target: T1, IDH2 R140Q (Homo sapiens, UniProt P48735, R140Q); test: Phase 1/2 clinical study AG221-C-001, pharmacodynamic response (2-HG plasma levels), R140Q subjects; format: in vivo; conditions: most subjects with R140Q mutation, all doses, by Day 1 of Cycle 2
T1 construct: endogenous in cells; host or cells: malignant haematologic cells of human subjects (in vivo; 2-HG measured in plasma)
T1 sequence (P48735 40-452 R140Q): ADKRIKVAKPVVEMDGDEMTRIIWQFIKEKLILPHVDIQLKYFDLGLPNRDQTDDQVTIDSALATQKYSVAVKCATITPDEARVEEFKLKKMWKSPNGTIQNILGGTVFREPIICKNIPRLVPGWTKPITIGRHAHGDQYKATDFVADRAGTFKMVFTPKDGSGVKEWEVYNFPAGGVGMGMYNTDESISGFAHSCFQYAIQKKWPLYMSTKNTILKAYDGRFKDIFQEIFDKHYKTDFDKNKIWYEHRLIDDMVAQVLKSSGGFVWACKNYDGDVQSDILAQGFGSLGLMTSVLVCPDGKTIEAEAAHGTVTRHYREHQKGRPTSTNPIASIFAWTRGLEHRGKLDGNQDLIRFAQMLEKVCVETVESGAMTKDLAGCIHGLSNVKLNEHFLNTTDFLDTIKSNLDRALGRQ
From the text: (§1) Three days prior to the start of daily dosing of AG-221 (Day −3), the first 3 subjects enrolled in each cohort in the dose escalation phase and the first 15 subjects enrolled in each arm of Part 1 Expansion will receive a single dose of AG-221 in clinic and have serial blood and urine samples obtained for determination of blood and urine concentrations of AG-221, its metabolite AGI-16903, 2-HG, and α-KG. A full 72-hour PK/PD profile will be conducted: subjects will be required to remain at the study site for 10 hours on Day −3 and return on Days −2, −1, and 1 for 24-, 48-, and 72-hour samples, respectively. During the in-clinic period on Day −3, clinical observation and serial 12-lead ECGs and vital signs assessments will be conducted.
(§2) Subjects in the dose escalation phase and Part 1 Expansion also will undergo PK/PD assessments over a 10-hour period on C1D15, C2D1, and C4D1. […] These subjects will have urine collected for PK/PD evaluation at screening; prior to dosing on C1D15, C2D1 and Day 1 of all cycles thereafter; and at the End of Treatment visit. Available bone marrow biopsy samples also will be assessed for 2-HG and α-KG levels.
(§3) Serial blood sampling for determination of concentration-time profiles of COMPOUND 1 and its metabolite (6-(6-(trifluoromethyl)pyridin-2-yl)-N2-(2-(trifluoromethyl)pyridin-4-yl)-1,3,5-triazine-2,4-diamine). […]

[2] = Phase 1/2 clinical study AG221-C-001, safety; format: in vivo, human; conditions: 100 mg
From the text: Toxicity severity will be graded according to the National Cancer Institute Common Terminology Criteria for Adverse Events (NCI CTCAE) Version 4.03. A DLT is defined as outlined below.
Monitoring of AEs, including determination of DLTs, serious adverse events (SAEs), and AEs leading to discontinuation; safety laboratory parameters; physical examination findings; vital signs; 12-lead ECGs; LVEF; and ECOG PS.
The severity of AEs will be assessed by the NCI CTCAE, Version 4.03.

IDH2 R172K = molecular target: T2, IDH2 R172K (Homo sapiens, UniProt P48735, R172K); test: Phase 1/2 clinical study AG221-C-001, pharmacodynamic response (2-HG), R172K subjects; format: in vivo; conditions: subjects with R172K mutation
T2 construct: endogenous in cells; host or cells: malignant haematologic cells of human subjects (in vivo; 2-HG measured in blood)
T2 sequence (P48735 40-452 R172K): T1 sequence (P48735 40-452 R140Q) with Q101R, R133K
From the text: as §1, §2, §3

[3] = solubility in fasted state simulated intestinal fluid (FASSIF); format: physicochemical; conditions: pH 6.1, at 4 hours

Row | inhibition of 2-HG plasma levels (IDH2 R140Q) | solubility at 4 h [3] [µg/mL] | SMILES | overall response rate [1] [%] | safety profile, including ≥Grade 3 [2] | inhibition of 2-HG and exposure, dependence on dose (IDH2 R172K)
1 | up to 98% |  | CC(C)(O)CNc1nc(Nc2ccnc(C(F)(F)F)c2)nc(-c2cccc(C(F)(F)F)n2)n1 [COMPOUND 1, 2-methyl-1-[(4-[6-(trifluoromethyl)pyridin-2-yl]-6-{[2-(trifluoromethyl)pyridin-4-yl]amino}-1,3,5-triazin-2-yl)amino]propan-2-ol] | 36.4 | consistent with that of lower doses | Increasing dose is associated with higher exposure and inhibition of 2-HG
2 |  | ~18 (≈ 30.9 µM) | N#Cc1ccnc(N2C(=O)CC[C@H]2C(=O)N(c2cncc(F)c2)[C@H](C(=O)NC2CC(F)(F)C2)c2ccccc2Cl)c1 [Form 2, (S)—N—((S)-1-(2-chlorophenyl)-2-((3,3-difluorocyclobutyl)amino)-2-oxoethyl)-1-(4-cyanopyridin-2-yl)-N-(5-fluoropyridin-3-yl)-5-oxopyrrolidine-2-carboxamide] |  |  | 
